Results published in US12319676B2, “Substituted amide compounds useful as farnesoid X receptor modulators” (BRISTOL-MYERS SQUIBB COMPANY, priority 2019, dated 2025).

The compounds below were run against T1, human FXR (Homo sapiens, UniProt Q96RI1) (assay: transient human FXR/Gal4-luciferase reporter assay). Settings: Gal4-hFXR fusion construct, luciferase reporter in HEK293 cells; overnight incubation; response as percentage of 8 μM GW-4064 control.
T1 construct: expressed in transfected cells; host or cells: HEK293 cells stably carrying a 5xGal4 response element-luciferase reporter, transiently transfected with pcDNA3.1-Gal4-FXR
T1 sequence (Q96RI1 262-486 limits assumed): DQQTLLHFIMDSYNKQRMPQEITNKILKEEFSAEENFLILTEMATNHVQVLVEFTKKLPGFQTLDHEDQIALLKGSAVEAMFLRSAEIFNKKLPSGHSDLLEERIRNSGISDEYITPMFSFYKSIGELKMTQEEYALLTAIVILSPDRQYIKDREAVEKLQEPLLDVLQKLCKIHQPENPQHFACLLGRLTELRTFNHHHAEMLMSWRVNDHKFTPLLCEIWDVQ
Format: cell-based
Description: The exemplified compounds of the present invention were tested in the transient human FXR/Gal4-luciferase reporter assay, and assay results were reported in Table 1 and Examples 1 to 3 together with other analytical data. A Gal4-hFXR fusion construct reporter system was used as the primary assay to characterize compound activity. A construct including 5 copies of the Gal4 promoter response element upstream of a firefly luciferase reporter cDNA was stably expressed in HEK293 cells. This reporter cell line was maintained in Dulbecco's Modified Eagle's medium (DMEM; Gibco) supplemented with 1% penicillin-streptomycin (P/S) solution, 500 μg/mL Zeocin and 10% charcoal/dextran-treated fetal bovine serum (cs-FBS) at 37° C. in a humidified 5% CO2 atmosphere. Another plasmid was constructed in which the human cytomegalovirus promoter in the pcDNA3.1 vector directs the expression of the cDNA encoding a fusion protein comprised of the DNA binding domain from the Gal4 transcription factor fused to the ligand binding domain from human FXR. The day prior to transfection, the reporter cells in culture are detached from the plate with trypsin and plated into a T75 flask at a sufficient density to achieve approximately 90% confluence the next morning. The transfection reagents are prepared by separately diluting 25 μg of the pcDNA3.1-Gal4-FXR plasmid into 1.87 mL of Opti-MEM (Thermo-Fisher), and 40 μL of Lipofectamine 2000 (Thermo-Fisher) into 1.87 mL of Opti-MEM, and then adding the diluted DNA solution into the diluted Lipofectamine 2000 solution and incubating at room temperature for 15-20 minutes. The mixture is further diluted with 10 mL of a solution comprised of DMEM, 10% cs-FBS, and 1% P/S immediately prior to transferring to the cells. The maintenance culture media is aspirated from the cells and the final transfection mixture is added before the cells are incubated overnight at 37° C. in a humidified 5% CO2 atmosphere. This protocol can be scaled up, and the transiently transfected cells can be cryopreserved in an assay-ready format. For compound testing, 100 nL of the compounds (serial dilutions in DMSO) are dispensed with an Echo acoustic dispenser (Labcyte) into the wells of a Corning/Costar clear bottom 384-well white plate. The transfected cells are harvested, counted, and diluted such that 10-25,000 cells in 25 μL are plated into each well of the 384-well compound assay plate. The compound-treated cells are incubated overnight at 37° C. in a humidified 5% CO2 atmosphere. The next morning 25 μL of Steady-Glo (Promega) are added to each well of the plate, the mixture is incubated for 15 min. with shaking, and luminescence is measured on an Envision (Perkin Elmer) plate reader. Background counts from cells treated with DMSO alone are subtracted from all raw counts, and the corrected values are converted to a percentage of the control response attained with 8 μM GW-4064.

| EC50 | SMILES |
| --- | --- |
| 4000 nM | CC(F)(F)c1nc(C23CCC(CN(C(=O)C4CCC(F)(F)CC4)c4cccc(S(=O)(=O)NC5CC5)c4)(CC2)CC3)no1 [Example 20, N-(3-(N-cyclopropylsulfamoyl)phenyl)-N-((4-(5-(1,1-difluoroethyl)-1,2,4-oxadiazol-3-yl)bicyclo[2.2.2]octan-1-yl)methyl)-4,4-difluorocyclohexane-1-carboxamide] |
| 4000 nM | CNS(=O)(=O)c1cccc(N(CC23CCC(c4noc(C(C)(F)F)n4)(CC2)CC3)C(=O)C23CC(F)(C2)C3)c1 [Example 21, N-((4-(5-(1,1-difluoroethyl)-1,2,4-oxadiazol-3-yl)bicyclo[2.2.2]octan-1-yl)methyl)-3-fluoro-N-(3-(N-methylsulfamoyl)phenyl)bicyclo[1.1.1]pentane-1-carboxamide] |
| 4000 nM | CNS(=O)(=O)c1cccc(N(CC23CCC(c4noc(C(C)(F)F)n4)(CC2)CC3)C(=O)[C@H]2C[C@](O)(C(F)(F)F)C2)c1 [Example 22, (1S,3S)-N-((4-(5-(1,1-difluoroethyl)-1,2,4-oxadiazol-3-yl)bicyclo[2.2.2]octan-1-yl)methyl)-3-hydroxy-N-(3-(N-methylsulfamoyl)phenyl)-3-(trifluoromethyl)cyclobutane-1-carboxamide] |
| 4000 nM | CNS(=O)(=O)c1cccc(N(CC23CCC(c4noc(C(C)(F)F)n4)(CC2)CC3)C(=O)C2CCC(F)(F)CC2)c1 [Example 23, N-((4-(5-(1,1-difluoroethyl)-1,2,4-oxadiazol-3-yl)bicyclo[2.2.2]octan-1-yl)methyl)-4,4-difluoro-N-(3-(N-methylsulfamoyl)phenyl)cyclohexane-1-carboxamide] |
| 4000 nM | CC(F)(F)c1nc(C23CCC(CN(C(=O)C4CCC(F)(F)CC4)c4cccc(P(C)(C)=O)c4)(CC2)CC3)no1 [Example 24, N-((4-(5-(1,1-difluoroethyl)-1,2,4-oxadiazol-3-yl)bicyclo[2.2.2]octan-1-yl)methyl)-N-(3-(dimethylphosphoryl)phenyl)-4,4-difluorocyclohexane-1-carboxamide] |
| 4000 nM | CC(F)(F)c1nc(C23CCC(CN(C(=O)C45CC(F)(C4)C5)c4cccc(P(C)(C)=O)c4)(CC2)CC3)no1 [Example 25, N-((4-(5-(1,1-difluoroethyl)-1,2,4-oxadiazol-3-yl)bicyclo[2.2.2]octan-1-yl)methyl)-N-(3-(dimethylphosphoryl)phenyl)-3-fluorobicyclo[1.1.1]pentane-1-carboxamide] |
| 4000 nM | CC(F)(F)c1nc(C23CCC(CN(c4cccc(P(C)(C)=O)c4)C(=O)[C@H]4C[C@](O)(C(F)(F)F)C4)(CC2)CC3)no1 [Example 26, (1S,3S)-N-((4-(5-(1,1-difluoroethyl)-1,2,4-oxadiazol-3-yl)bicyclo[2.2.2]octan-1-yl)methyl)-N-(3-(dimethylphosphoryl)phenyl)-3-hydroxy-3-(trifluoromethyl)cyclobutane-1-carboxamide] |
| 72 nM | COC(=O)c1cccc(N(CC23CCC(c4noc(C(C)(F)F)n4)(CC2)CC3)C(=O)C23CC(F)(C2)C3)c1 [Example 27, Methyl 3-(N-((4-(5-(1,1-difluoroethyl)-1,2,4-oxadiazol-3-yl)bicyclo[2.2.2]octan-1-yl)methyl)-3-fluorobicyclo[1.1.1]pentane-1-carboxamido)benzoate] |
| 210 nM | CCNC(=O)c1cccc(N(CC23CCC(c4noc(C(C)(F)F)n4)(CC2)CC3)C(=O)C23CC(F)(C2)C3)c1 [Example 28, N-((4-(5-(1,1-difluoroethyl)-1,2,4-oxadiazol-3-yl)bicyclo[2.2.2]octan-1-yl)methyl)-N-(3-(ethylcarbamoyl)phenyl)-3-fluorobicyclo[1.1.1]pentane-1-carboxamide] |
| 902 nM | CC(F)(F)c1nc(C23CCC(CN(C(=O)C45CC(F)(C4)C5)c4cccc(C(N)=O)c4)(CC2)CC3)no1 [Example 29, N-(3-carbamoylphenyl)-N-((4-(5-(1,1-difluoroethyl)-1,2,4-oxadiazol-3-yl)bicyclo[2.2.2]octan-1-yl)methyl)-3-fluorobicyclo[1.1.1]pentane-1-carboxamide] |
| 150 nM | CC(F)(F)c1nc(C23CCC(CN(C(=O)N[C@H]4CC[C@](C)(O)CC4)c4cccc(Br)c4)(CC2)CC3)no1 [Example 30, 1-(3-bromophenyl)-1-((4-(5-(1,1-difluoroethyl)-1,2,4-oxadiazol-3-yl)bicyclo[2.2.2]octan-1-yl)methyl)-3-((1R,4R)-4-hydroxy-4-methylcyclohexyl)urea] |
| 62 nM | CC(C)(C)OC(=O)Nc1cccc(N(CC23CCC(c4noc(C(C)(F)F)n4)(CC2)CC3)C(=O)C23CC(F)(C2)C3)c1 [Example 32, Tert-butyl (3-(N-((4-(5-(1,1-difluoroethyl)-1,2,4-oxadiazol-3-yl)bicyclo[2.2.2]octan-1-yl)methyl)-3-fluorobicyclo[1.1.1]pentane-1-carboxamido)phenyl)carbamate] |
| 13 nM | CC(F)(F)c1nc(C23CCC(CN(C(=O)C45CC(F)(C4)C5)c4cccc(Br)c4)(CC2)CC3)no1 [Example 33, N-(3-bromophenyl)-N-((4-(5-(1,1-difluoroethyl)-1,2,4-oxadiazol-3-yl)bicyclo[2.2.2]octan-1-yl)methyl)-3-fluorobicyclo[1.1.1]pentane-1-carboxamide] |
| 20 nM | O=C(N(CC12CCC(c3noc(C4(F)CC4)n3)(CC1)CC2)c1cccc(Br)c1)C12CC(F)(C1)C2 [Example 34, N-(3-bromophenyl)-3-fluoro-N-((4-(5-(1-fluorocyclopropyl)-1,2,4-oxadiazol-3-yl)bicyclo[2.2.2]octan-1-yl)methyl)bicyclo[1.1.1]pentane-1-carboxamide] |
| 42 nM | O=C(N(CC12CCC(c3noc(C(F)(F)F)n3)(CC1)CC2)c1cccc(Br)c1)C12CC(F)(C1)C2 [Example 35, N-(3-bromophenyl)-3-fluoro-N-((4-(5-(trifluoromethyl)-1,2,4-oxadiazol-3-yl)bicyclo[2.2.2]octan-1-yl)methyl)bicyclo[1.1.1]pentane-1-carboxamide] |
| 135 nM | CC(C)(C)c1noc(C23CCC(CN(c4cccc(Br)c4)C(=O)[C@H]4C[C@](O)(C(F)(F)F)C4)(CC2)CC3)n1 [Example 36, (1S,3S)—N-(3-bromophenyl)-N-((4-(3-(tert-butyl)-1,2,4-oxadiazol-5-yl)bicyclo[2.2.2]octan-1-yl)methyl)-3-hydroxy-3-(trifluoromethyl)cyclobutane-1-carboxamide] |
| 1080 nM | CC(C)(C)c1noc(C23CCC(CN(C(=O)C45CC(F)(C4)C5)c4ccc(Cl)c(Br)c4)(CC2)CC3)n1 [Example 37, N-(3-bromo-4-chlorophenyl)-N-((4-(3-(tert-butyl)-1,2,4-oxadiazol-5-yl)bicyclo[2.2.2]octan-1-yl)methyl)-3-fluorobicyclo[1.1.1]pentane-1-carboxamide] |
| 142 nM | CC(C)(C)c1noc(C23CCC(CN(C(=O)C45CC(F)(C4)C5)c4cccc(C#N)c4)(CC2)CC3)n1 [Example 38, N-((4-(3-(tert-butyl)-1,2,4-oxadiazol-5-yl)bicyclo[2.2.2]octan-1-yl)methyl)-N-(3-cyanophenyl)-3-fluorobicyclo[1.1.1]pentane-1-carboxamide] |
| 568 nM | CC(C)(C)c1noc(C23CCC(CN(c4cccc(C#N)c4)C(=O)[C@H]4C[C@](O)(C(F)(F)F)C4)(CC2)CC3)n1 [Example 39, (1S,3S)-N-((4-(3-(tert-butyl)-1,2,4-oxadiazol-5-yl)bicyclo[2.2.2]octan-1-yl)methyl)-N-(3-cyanophenyl)-3-hydroxy-3-(trifluoromethyl)cyclobutane-1-carboxamide] |
| 1260 nM | CC(C)(C)c1noc(C23CCC(CN(c4cccc(C#N)c4)C(=O)[C@H]4C[C@@](C)(O)C4)(CC2)CC3)n1 [Example 40, (1S,3S)-N-((4-(3-(tert-butyl)-1,2,4-oxadiazol-5-yl)bicyclo[2.2.2]octan-1-yl)methyl)-N-(3-cyanophenyl)-3-hydroxy-3-methylcyclobutane-1-carboxamide] |
